In patent US8334126B2, “Coryneform host-vector systems comprising a chromosomal ALR gene which is attenuated or eliminated and methods of using” (priority 2000, dated 2012):

Legend:
[1] = test system: Corynebacterium glutamicum ATCC13032[pTET3]; test: Minimum inhibitory concentration, dilution antimicrobial susceptibility test (NCCLS M7-A4); format: cell-based; conditions: transformed strain ATCC13032[pTET3]; MÜLLER-HINTON-Bouillon
Text: (§1) The nutrient medium required for this test, “MÜLLER-HINTON-Bouillon”, was obtained from Merck KgaA (Darmstadt, Germany) and employed in accordance with the manufacturer's instructions. […] The plasmid DNA isolated from Corynebacterium glutamicum LP-6 with the aid of an alkaline lysis method (“NucleoBond Nucleic Acid Purification Kits and Cartridges User Manual (PT3167-1)”, Clonetech Laboratories GmbH, Heidelberg, Germany, 1997 I.B.R.) was then transferred to Corynebacterium glutamicum ATCC13032 by electrotransfer.

[2] = test system: Corynebacterium glutamicum ATCC13032; test: as above; format: cell-based; conditions: sensitive control strain ATCC13032; MÜLLER-HINTON-Bouillon
Text: as §1

[3] = test system: Corynebacterium glutamicum LP-6; conditions: resistant test strain LP-6; MÜLLER-HINTON-Bouillon
Text: as §1

CN(C)[C@@H]1C(O)=C(C(N)=O)C(=O)[C@@]2(O)C(O)=C3C(=O)c4c(O)cccc4[C@@](C)(O)[C@H]3C[C@@H]12 [Tetracycline, tetracycline]
Minimum inhibitory concentration [1]: ≦12 μg tetracycline per ml | Minimum inhibitory concentration [2]: ≦0.75 μg tetracycline per ml | Minimum inhibitory concentration [3]: ≦12 μg tetracycline per ml
